Data set [1] in a line: Pharmacokinetics after intraperitoneal injection, plasma and brain by LC-MS/MS. Type of data set: in vivo. Conditions: mice, 2 mg/kg intraperitoneal. The protocol:
The ability of the ML-348 molecule to freely cross the blood brain barrier is an additional argument towards the efficacy of the molecule in vivo in mice.
Plasma proteins were precipitated by adding 800 μL acetonitrile into 400 μL of sample. Brains were ground into 400 μL H2O before adding 800 μL acetonitrile. Samples were centrifuged to remove insoluble residues at 15.000 g for 5 minutes at 16° C. Supernatants were analyzed by LC-MS/MS. LC-MS/MS was assessed by high-performance liquid chromatography (UHPC) coupled with a triple quadrupole (Shimadzu LC-MS 8030). Analyses were performed from 3 mice for each time point.
Before investigating ML-348 in vivo, the inventors first evaluated the pharmacokinetics of the molecule. […] They then evaluated the efficacy of the molecule to increase brain palmitoylation level 30 minutes after injection. For this purpose, they performed an Acyl-Biotin-Exchange (ABE) assay to biotinylate palmitoylated proteins before their immunoprecipitation with streptavidin-coated beads (FIG. 4D).

Data set [2] concerns cortical neurons derived from human induced pluripotent stem cells (iPSCs) from Huntington's disease patients. In words: BDNF-mCherry axonal trafficking in hiPSC-derived cortical neurons in microfluidic device. Type of data set: cell-based. Conditions: 1 μM daily for 7 days vs DMSO. The method, then: Referring to FIG. 7A, the inventors again reproduced the corticostriatal network in vitro on a microfluidic device consisting of two neuronal chambers that are connected via microchannels. Experiments are performed over a period ranging from 0 to 40 days in vitro (DIV), the first 20 days for neuronal cell generation and differentiation of hiPSCs, followed by the introduction of the cells into the microfluidic device. 3 hours after introduction, cells were infected from the pre-synaptic compartment with a lentivirus encoding BDNF-mCHerry.
The human iPSC line ND42222 (RRID:CVCL_Y844 passage 42) “109Q” was obtained from Coriell Cell Repositories. This line is heterozygous for HTT p.Gln18[109] and therefore has 109 CAG repeats in one of the two HTT alleles. Amplification of human iPSCs, generation of neuronal cells and terminal differentiation were performed according to the work published in Gribaudo S. et al. (Stem Cell Reports 12, 230-244, 2019). 109Q cells were maintained on Vitronectin-coated plates (Life Technology) in mTeSRplus medium ([…] Technologies). Cultures were fed every other day and passaged by manual dissociation using 0.02% EDTA pH 7.2 (Merck Sigma-Aldrich) every 4-5 days. For neuronal differentiation, hiPSC colonies were treated (DIV0) as previously described (Nicoleau et al., 2013) in N2B27 medium consisting of 50% DMEMF-12 Glutamax, 50% neurobasal medium, 2% B27 supplement 50× without vitamin A, 1% N2 supplement, 0.1% penicillin streptomycin, and 50 μM β-mercaptoethanol (Thermofisher). Neuronal differentiation was initiated by passage of hiPSCs in N2B27 medium supplemented with SB431542 (20 μM, Tocris), LDN-193189 (100 nM, Sigma Aldrich) and XAV_939 (1 μM, Tocris) and 10 μM ROCK inhibitor (Y27632, Calbiochem) on low-adhesion culture plates (Greiner) for 6 hours. The medium was changed every day from DIV0 to DIV20. At DIV1, hiPSC aggregates were transferred to laminin poly-ornitine-coated dishes without Y27632. From DIV5 to DIV9, SB431542 was removed and FGF2 (10 ng/ml) and cyclopamine 1 μM (Merck) were added. […]

In data set [3] the test system is WT and Hdh^CAG/+ corticostriatal network. In words: Synapse density (adjacent SYP and PSD95 spots) in microfluidic corticostriatal network. The data set is classed as cell-based, mouse. Conditions: 1 μM daily. The method, then: In FIG. 3H, we can see the recording area that was chosen for the assessment of synapse density by quantifying the number of synaptophysin (SYP) spots, a presynaptic marker, and the number of PSD95 spots, a postsynaptic marker. FIG. 3I testifies that in the Hdh^CAG/+ microfluidic network, the number of synapses is decreased in the microfluidic devices.
For striatal StHdh cells, acute treatment was performed at 10 μM for 1 hour before and during the acquisition time. For neurons within the microchambers, treatments were started at DIV2 until DIV12 every day at 1 μM in each compartment of the microfluidic device.
The inventors then assessed synapse density by quantifying the number of synaptophysin spots (presynaptic marker, SYP) adjacent to PSD95 spots (postsynaptic marker) within synaptic chamber of the microfluidic device using high-resolution Airyscan confocal microscopy (FIG. 3H). In Hdh^CAG/+ network, the number of synapses is decreased in the microfluidic devices (FIG. 3I). […] However, this was not significant.

A further data set deals with melanoma cells. Conditions: studies of Vujic et al., 2015; cited from earlier work.
Another data set relates to Hdh^CAG/+ mice. Kind of data set: Post-mortem synapse density (adjacent PSD95 and Vglut-1 spots) after 28 days of treatment. The data set is classed as in vivo, mouse. The source says:
We note that there is a significant reduction in this number of adjacent spots in untreated Hdh^CAG/+ mice.

Data set [4] relates to mouse cortical neuronal cells. Kind of data set: MTT toxicity assay. The data set is classed as cell-based. The protocol:
Toxicity was assessed using the tetrazolium salt MTT assay. The cortical culture was treated every day as previously described. After treatment, a solution of MTT (Life M6494) was added to the culture medium at 1.2 mM and incubated for 3 hours. The reaction was terminated by adding the solvent solution (4 mM HCl, 0.1% NP40 in isopropanol). The absorbance value was measured at 595 and 690 nm.
On the technique in general: Formazan colour is commonly taken as a measure of viable cells.

In the case of `O=C(CN1CCN(C(=O)c2ccco2)CC1)Nc1cc(C(F)(F)F)ccc1Cl` [ML-348], in data set [1] (30, 60 and 180 minutes), the “crossing of the blood brain barrier ([Brain]/[Plasma] values)” value is listed as “effectively crosses the blood brain barrier”. In addition, the “degradation after injection (plasma and brain levels)” value in data set [1] (60 minutes after injection) was “rapidly degraded”. Besides, the “anterograde and retrograde transport velocities of BDNF-mCherry vesicles” value in data set [2] is on record as “not statistically significant”. Moreover, in data set [2], the linear net flow entry is reported as “significantly increased”. In addition, the “number of vesicles moving in either direction (anterograde, retrograde)” value in data set [2] is “significantly increased”. In addition, the “number of synapses (adjacent SYP and PSD95 spots)” value in data set [3] (Hdh^CAG/+ network) is listed as “restored the number of synapses”; in data set [3] (wild-type network, not statistically significant), “slightly reduced synapse connectivity”. Further, the “effect on melanoma cells” value in the data set with melanoma cells was “no biologically significant effect”. For the same compound, in the data set with Hdh^CAG/+ mice, the “synaptic density, number of PSD95 and Vglut-1 adjacent dots per 100 μm^2” value is recorded as “restores synaptic density to a level approximately equal to that of untreated wild-type mice”. Besides, the “cell viability (MTT)” value in data set [4] (100 nM, 1 μM or 10 μM) is “no effect”. The “toxicity (MTT)” value is “no toxicity” in data set [4] (1 μM, for 12 days); “toxic” in data set [4] (100 μM, over 48 hours); “no toxicity” in data set [4] (wild-type cortical cultures, 1 μM for 10 days).

These data come from US12551479B2, “Acyl-protein thioesterase inhibitor for the treatment and/or prevention of Huntington's disease” (UNIVERSITÉ GRENOBLE ALPES, priority 2019, dated 2026).
